Laboratory results reported in patent US20250179000A1 (Sanford Burnham Prebys Medical Discovery Institute, priority 2021, published 2025).

Legend:
Type in all cases: cell-based
Human mGlu2 = Human mGlu2 (Homo sapiens, UniProt Q14416); test: mGlu receptor in vitro assay, human mGlu2
Human mGlu3 = Human mGlu3 (Homo sapiens, UniProt Q14832); test: mGlu receptor in vitro assay, human mGlu3
Experimental: (§1) Human Embryonic Kidney (HEK-293) cell lines co-expressing rat mGlu receptors 2, 3, 4, 6, 7 or 8 and G protein-coupled inwardly-rectifying potassium (GIRK) channels were grown in Growth Media containing 45% DMEM, 45% F-12, 10% FBS, 20 mM HEPES, 2 mM L-glutamine, antibiotic/antimycotic, non-essential amino acids, 700 μg/mL G418, and 0.6 μg/ml puromycin at 37° C. in the presence of 5% CO2. […] All cell culture reagents were purchased from Invitrogen Corp. (Carlsbad, CA) unless otherwise noted. Calcium assays were used to assess activity of compounds at mGlu1 and mGlu5, as previously described in Engers et al (J. Med. Chem. 2009, 52, 4115-4118). Calcium assays at mGlu3 were performed as described for mGlu5 with the exception that TREx293 mGlu3 Gα15 cells were treated with tetracycline at 20 ng/mL for 20 h prior to assay.
(§2) Briefly, cells were plated into 384-well, black-walled, clear-bottomed poly-D-lysine-coated plates at a density of 15,000 cells/20 μL/well in DMEM containing 10% dialyzed FBS, 20 mM HEPES, and 100 units/mL penicillin/streptomycin (assay media). Plated cells were incubated overnight at 37° C. in the presence of 5% CO2. The following day, the medium was exchanged from the cells to assay buffer [Hanks' balanced salt solution (Invitrogen) containing 20 mM HEPES, pH 7.3] using an ELX405 microplate washer (BioTek), leaving 20 μL/well, followed by the addition of 20 μL/well FluoZin2-AM (330 nM final concentration) indicator dye (Invitrogen; prepared as a stock in DMSO and mixed in a 1:1 ratio with Pluronic acid F-127) in assay buffer. Cells were incubated for 1 h at room temperature, and the dye exchanged to assay buffer using an ELX405, leaving 20 μL/well. Test compounds were diluted to 2 times their final desired concentration in assay buffer (0.3% DMSO final concentration). Agonists were diluted in thallium buffer [125 mM sodium bicarbonate (added fresh the morning of the experiment), 1 mM magnesium sulfate, 1.8 mM calcium sulfate, 5 mM glucose, 12 mM thallium sulfate, and 10 mM HEPES, pH 7.3] at 5 times the final concentration to be assayed. Cell plates and compound plates were loaded onto a kinetic imaging plate reader (FDSS 6000 or 7000; Hamamatsu Corporation, Bridgewater, NJ). Appropriate baseline readings were taken (10 images at 1 Hz; excitation, 470±20 nm; emission, 540±30 nm) and test compounds were added in a 20 μL volume and incubated for approximately 2.5 min before the addition of 10 μL of thallium buffer with or without agonist. After the addition of agonist, data were collected for approximately an additional 2.5 min. Data were analyzed using Excel (Microsoft Corp, Redmond, WA). The slope of the fluorescence increase beginning 5 s after thallium/agonist addition and ending 15 s after thallium/agonist addition was calculated, corrected to vehicle and maximal agonist control slope values, and plotted in using either XLfit (ID Business Solutions Ltd) or Prism software (GraphPad Software, San Diego, CA) to generate concentration-response curves. Potencies were calculated from fits using a four-point parameter logistic equation. For concentration-response curve experiments, compounds were serially diluted 1:3 into 10-point concentration response curves and were transferred to daughter plates using an Echo acoustic plate reformatter (Labcyte, Sunnyvale, CA). Test compounds were applied and followed by EC20 concentrations of glutamate.

Rat mGlu3 = target: T1, Rat mGlu3 (Rattus norvegicus, UniProt P31422); test: mGlu receptor in vitro assay (thallium flux through GIRK channels / calcium assay), rat mGlu3; conditions: PAM potency with EC20 glutamate
T1 construct: expressed in transfected cells; host or cells: HEK-293 co-expressing GIRK channels
Experimental: as §1
as §2, with “Compound activity at the group II (mGlu2 and mGlu3) and group III (mGlu4, mGlu6, mGlu7, and mGlu8) was assessed using thallium flux through GIRK channels, a method that has been described in detail. Briefly,” for “Briefly,”

Rat mGlu2 = target: T2, Rat mGlu2 (Rattus norvegicus, UniProt P31421); test: mGlu receptor in vitro assay, thallium flux through GIRK channels, rat mGlu2; conditions: PAM potency with EC20 glutamate
T2 construct: expressed in transfected cells; host or cells: HEK-293 co-expressing GIRK channels
Experimental: as §1
as §2, with “Compound activity at the group II (mGlu2 and mGlu3) and group III (mGlu4, mGlu6, mGlu7, and mGlu8) was assessed using thallium flux through GIRK channels, a method that has been described in detail. Briefly,” for “Briefly,”

Human mGlu2, sequence (Q14416 19-872): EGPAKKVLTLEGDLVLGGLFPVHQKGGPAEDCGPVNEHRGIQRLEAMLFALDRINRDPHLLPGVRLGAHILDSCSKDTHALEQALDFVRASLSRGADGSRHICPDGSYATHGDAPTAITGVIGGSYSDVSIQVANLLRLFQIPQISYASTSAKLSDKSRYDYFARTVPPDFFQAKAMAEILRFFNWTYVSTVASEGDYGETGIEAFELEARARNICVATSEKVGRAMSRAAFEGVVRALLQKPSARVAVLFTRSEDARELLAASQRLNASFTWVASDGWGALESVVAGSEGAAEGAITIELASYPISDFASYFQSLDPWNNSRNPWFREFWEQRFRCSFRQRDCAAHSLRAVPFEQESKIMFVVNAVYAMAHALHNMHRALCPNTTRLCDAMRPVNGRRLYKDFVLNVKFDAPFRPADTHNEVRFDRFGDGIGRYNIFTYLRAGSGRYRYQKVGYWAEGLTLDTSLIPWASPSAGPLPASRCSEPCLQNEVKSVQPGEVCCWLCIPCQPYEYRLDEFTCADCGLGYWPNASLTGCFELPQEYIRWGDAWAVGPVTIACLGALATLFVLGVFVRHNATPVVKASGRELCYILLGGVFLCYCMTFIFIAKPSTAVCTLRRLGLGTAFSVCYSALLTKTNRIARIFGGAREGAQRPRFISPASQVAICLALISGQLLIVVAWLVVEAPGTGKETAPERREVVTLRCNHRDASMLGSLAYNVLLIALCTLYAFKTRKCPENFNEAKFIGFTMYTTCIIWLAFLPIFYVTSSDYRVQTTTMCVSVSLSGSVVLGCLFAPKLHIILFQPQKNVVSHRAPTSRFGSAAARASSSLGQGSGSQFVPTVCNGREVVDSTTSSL
T2 sequence (P31421 19-872): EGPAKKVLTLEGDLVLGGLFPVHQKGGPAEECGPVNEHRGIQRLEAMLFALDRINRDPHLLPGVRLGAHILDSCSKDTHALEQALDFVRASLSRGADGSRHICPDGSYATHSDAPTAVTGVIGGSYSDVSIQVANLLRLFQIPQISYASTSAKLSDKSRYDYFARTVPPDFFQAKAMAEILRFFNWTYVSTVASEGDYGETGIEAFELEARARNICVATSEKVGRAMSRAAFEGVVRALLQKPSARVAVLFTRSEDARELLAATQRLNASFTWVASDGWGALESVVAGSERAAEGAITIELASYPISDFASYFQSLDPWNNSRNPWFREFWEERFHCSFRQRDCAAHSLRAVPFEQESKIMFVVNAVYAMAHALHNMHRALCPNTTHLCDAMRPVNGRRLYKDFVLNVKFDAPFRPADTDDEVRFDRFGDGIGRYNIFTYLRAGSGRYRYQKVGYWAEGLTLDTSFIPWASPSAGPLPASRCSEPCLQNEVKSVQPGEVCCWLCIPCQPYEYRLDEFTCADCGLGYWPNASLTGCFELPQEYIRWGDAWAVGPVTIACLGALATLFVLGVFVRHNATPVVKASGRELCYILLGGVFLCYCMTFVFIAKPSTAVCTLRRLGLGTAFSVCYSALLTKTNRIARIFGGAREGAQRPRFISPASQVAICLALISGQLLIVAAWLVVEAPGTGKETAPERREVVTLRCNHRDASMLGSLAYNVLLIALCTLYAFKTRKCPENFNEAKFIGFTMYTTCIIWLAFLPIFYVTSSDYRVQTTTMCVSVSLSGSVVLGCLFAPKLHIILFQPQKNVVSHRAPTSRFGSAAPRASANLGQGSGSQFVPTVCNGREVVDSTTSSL
Human mGlu3, sequence (Q14832 23-879): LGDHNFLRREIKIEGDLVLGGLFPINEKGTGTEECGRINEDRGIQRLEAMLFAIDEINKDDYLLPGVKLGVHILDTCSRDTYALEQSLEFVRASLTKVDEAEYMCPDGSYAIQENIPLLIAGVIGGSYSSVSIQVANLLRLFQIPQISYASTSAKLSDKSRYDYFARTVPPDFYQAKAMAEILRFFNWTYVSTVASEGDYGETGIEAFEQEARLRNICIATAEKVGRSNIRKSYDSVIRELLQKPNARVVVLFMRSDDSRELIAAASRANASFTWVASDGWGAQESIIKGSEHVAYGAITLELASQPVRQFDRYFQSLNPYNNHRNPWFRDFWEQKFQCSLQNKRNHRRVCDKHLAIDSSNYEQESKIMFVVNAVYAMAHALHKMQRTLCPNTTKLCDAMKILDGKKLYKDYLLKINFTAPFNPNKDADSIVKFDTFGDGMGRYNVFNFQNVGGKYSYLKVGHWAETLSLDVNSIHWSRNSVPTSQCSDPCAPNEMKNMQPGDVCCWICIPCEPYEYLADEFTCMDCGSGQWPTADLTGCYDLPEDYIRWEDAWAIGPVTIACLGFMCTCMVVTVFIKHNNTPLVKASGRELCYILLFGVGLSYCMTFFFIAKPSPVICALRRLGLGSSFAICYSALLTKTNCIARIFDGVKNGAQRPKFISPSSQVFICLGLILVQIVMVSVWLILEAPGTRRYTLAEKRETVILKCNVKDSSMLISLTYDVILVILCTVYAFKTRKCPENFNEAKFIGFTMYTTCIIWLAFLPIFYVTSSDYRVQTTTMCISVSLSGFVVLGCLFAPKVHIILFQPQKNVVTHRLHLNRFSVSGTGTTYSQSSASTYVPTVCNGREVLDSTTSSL
T1 sequence (P31422 23-879): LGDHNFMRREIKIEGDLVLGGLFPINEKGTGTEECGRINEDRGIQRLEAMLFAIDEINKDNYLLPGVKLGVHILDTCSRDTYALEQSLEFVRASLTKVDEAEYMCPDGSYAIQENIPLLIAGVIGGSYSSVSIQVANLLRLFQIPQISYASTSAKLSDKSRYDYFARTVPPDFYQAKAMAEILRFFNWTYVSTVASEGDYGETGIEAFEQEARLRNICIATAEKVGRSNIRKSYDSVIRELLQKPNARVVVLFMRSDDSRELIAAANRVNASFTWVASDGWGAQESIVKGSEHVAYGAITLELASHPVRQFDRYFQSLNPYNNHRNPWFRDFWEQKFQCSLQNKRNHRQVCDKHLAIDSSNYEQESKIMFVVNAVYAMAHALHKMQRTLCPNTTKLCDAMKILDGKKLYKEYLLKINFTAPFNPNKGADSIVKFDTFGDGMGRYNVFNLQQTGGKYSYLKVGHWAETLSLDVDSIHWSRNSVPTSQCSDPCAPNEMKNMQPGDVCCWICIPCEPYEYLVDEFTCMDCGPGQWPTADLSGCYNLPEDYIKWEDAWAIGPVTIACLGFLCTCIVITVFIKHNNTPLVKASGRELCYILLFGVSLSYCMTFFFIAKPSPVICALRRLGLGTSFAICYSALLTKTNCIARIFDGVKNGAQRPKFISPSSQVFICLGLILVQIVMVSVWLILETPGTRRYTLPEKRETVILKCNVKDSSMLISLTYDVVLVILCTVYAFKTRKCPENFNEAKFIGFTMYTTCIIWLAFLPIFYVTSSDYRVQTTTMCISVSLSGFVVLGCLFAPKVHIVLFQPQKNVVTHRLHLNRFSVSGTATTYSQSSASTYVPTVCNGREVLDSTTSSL

SMILES	EC50 (Human mGlu2) [nM]	EC50 (Human mGlu3) [nM]	EC50 (Rat mGlu3) [nM]	EC50 (Rat mGlu2) [nM]
COc1ccccc1C(=O)c1ccc(OCc2cnc(-c3cccc(C(=O)O)c3)cn2)c(C)c1O [compound 73, 3-(5-((3-Hydroxy-4-(2-methoxybenzoyl)-2-methylphenoxy)methyl)pyrazin-2-yl)benzoic acid]	2030	685		
Cc1c(OCc2cnc(-c3ccc(C(=O)O)c(F)c3)cn2)ccc(C(=O)CC(C)(C)C)c1O [compound 137, 4-(5-((4-(3,3-Dimethylbutanoyl)-3-hydroxy-2-methylphenoxy)methyl)pyrazin-2-yl)-2-fluorobenzoic acid]	913	3950		
Cc1c(OCCCCSc2cccc(C(=O)O)c2)ccc(C(=O)CC(C)(C)C)c1O [compound 80, 3-((4-(4-(3,3-Dimethylbutanoyl)-3-hydroxy-2-methylphenoxy)butyl)thio)benzoic acid]	228	461		
Cc1c(SCCCCSc2cccc(C(=O)O)c2)ccc(C(=O)CC(C)(C)C)c1O [compound 82, 3-{4-[4-(3,3-Dimethylbutanoyl)-3-hydroxy-2-methylphenylthio]butylthio}benzoic acid]	423	3000		
COc1c(C(=O)O)cccc1-c1cnc(COc2ccc3c(c2C)OC(C)(C)CC3=O)cn1 [compound 147, 2-Methoxy-3-(5-(((2,2,8-trimethyl-4-oxochroman-7-yl)oxy)methyl)pyrazin-2-yl)benzoic acid]	> 30000	> 30000		
COc1ccc(C(=O)O)c(-c2cnc(COc3ccc(C#CCO)c(C)c3C)cn2)c1 [compound 150]	> 10000	> 30000		
COc1ccc(C(=O)O)cc1OCCCCOc1ccc(C(=O)c2ccc(C(C)(C)C)cc2)c(O)c1C [compound 76, 3-[4-(4-{[4-(tert-Butyl)phenyl]carbonyl}-3-hydroxy-2-methylphenoxy)butoxy]-4-methoxybenzoic acid]	> 10000	> 10000		
Cc1c(OCc2cccc(-c3cccc(C(=O)O)c3)c2)ccc(C(=O)c2ccc(F)cc2)c1O [compound 74, 3′-((4-(4-Fluorobenzoyl)-3-hydroxy-2-methylphenoxy)methyl)-[1,1′-biphenyl]-3-carboxylic acid]	924	1650		
COc1c(C(=O)O)cccc1-c1ccc(COc2ccc(C(=O)CC(C)(C)C)c(O)c2C)nc1 [compound 152, 3-(6-((4-(3,3-Dimethylbutanoyl)-3-hydroxy-2-methylphenoxy)methyl)pyridin-3-yl)-2-methoxybenzoic acid]	130	74		
Cc1c(OCc2cnc(-c3ccc(C(=O)O)s3)cn2)ccc(C(=O)CC(C)(C)C)c1O [compound 141, 5-(5-((4-(3,3-Dimethylbutanoyl)-3-hydroxy-2-methylphenoxy)methyl)pyrazin-2-yl)thiophene-2-carboxylic acid]	547	603		
COc1ccc(C(=O)O)cc1CCCCCOc1ccc(C(=O)CC(C)(C)C)c(O)c1C [Example 3, 3-(5-(4-(3,3-Dimethylbutanoyl)-3-hydroxy-2-methylphenoxy)pentyl)-4-methoxybenzoic acid]	1350	750		
COc1c(C(=O)O)cccc1-c1noc(COc2ccc(C(=O)CC(C)(C)C)c(O)c2C)n1 [compound 158, 3-(5-((4-(3,3-Dimethylbutanoyl)-3-hydroxy-2-methylphenoxy)methyl)-1,2,4-oxadiazol-3-yl)-2-methoxybenzoic acid]	53	104		
COc1c(C(=O)O)cccc1-c1cnc(COc2ccc(C(=O)C3CC3)c(O)c2C)cn1 [compound 78, 3-(5-((4-(Cyclopropanecarbonyl)-3-hydroxy-2-methylphenoxy)methyl)pyrazin-2-yl)-2-methoxybenzoic acid]	41	1930		
COc1cccc(C(=O)c2ccc(OCc3cnc(-c4cccc(C(=O)O)c4)cn3)c(C)c2O)c1 [compound 75, 3-(5-((3-Hydroxy-4-(3-methoxybenzoyl)-2-methylphenoxy)methyl)pyrazin-2-yl)benzoic acid]	2710	1340		
Cc1c(OCc2cnc(-c3cccc(O)c3)cn2)ccc(C(=O)CC(C)(C)C)c1O [compound 145, 1-(2-Hydroxy-4-{[5-(3-hydroxyphenyl)pyrazin-2-yl]methoxy}-3-methylphenyl)-3,3-dimethylbutan-1-one]	> 10000	> 10000		
Cc1c(OCc2cnc(-c3cccc(C(=O)O)c3)cn2)ccc(C(=O)C(C)(C)C)c1O [compound 110, 3-(5-((3-Hydroxy-2-methyl-4-pivaloylphenoxy)methyl)pyrazin-2-yl)benzoic acid]			327	1040
Cc1c(OCc2ccc(-c3cccc(C(=O)O)c3)nn2)ccc(C(=O)CC(C)(C)C)c1O [compound 119, 3-(6-((4-(3,3-Dimethylbutanoyl)-3-hydroxy-2-methylphenoxy)methyl)pyridazin-3-yl)benzoic acid]			616	916
Cc1c(OCc2ccnc(-c3cccc(C(=O)O)c3)n2)ccc(C(=O)CC(C)(C)C)c1O [compound 114, 3-(4-((4-(3,3-Dimethylbutanoyl)-3-hydroxy-2-methylphenoxy)methyl)pyrimidin-2-yl)benzoic acid]			258	391
Cc1c(Oc2cccc(C(=O)O)c2)ccc(C(=O)CC(C)(C)C)c1O [compound 97, 3-[4-(3,3-Dimethylbutanoyl)-3-hydroxy-2-methylphenoxy]benzoic acid]			> 10000	1380
Cc1c(OCc2cccc(-c3cccc(C(=O)O)c3)c2)ccc(C(=O)Cc2ccccc2)c1O [compound 161, 3′-((3-Hydroxy-2-methyl-4-(2-phenylacetyl)phenoxy)methyl)-[1,1′-biphenyl]-3-carboxylic acid]			1030	200
